Test results reported in ChEMBL document CHEMBL1770078, “Discovery of a potent peptidic cyclophilin A inhibitor Trp-Gly-Pro” (Eur J Med Chem, 2011).
Where a SMILES comes first, the peptide text is derived from it.

Tests used:
[1] = test system: Human immunodeficiency virus 1; test: Antiviral activity against HIV1 3B infected in human MT2 cells assessed as inhibition of viral replication at 1 mM after 48 hrs by flow cytometry; type: functional; details: Human immunodeficiency virus 1, 3B, MT2, 48 h
[2] = molecular target: T1, Peptidyl-prolyl cis-trans isomerase A (Homo sapiens, UniProt P62937); test: Inhibition of PPIase activity of Cyclophilin A by Spectrophotometry
[3] = test system: SK-HEP1; test: Cytotoxicity against human SKHEP1 cells upto 100 uM after 48 hrs by MTT assay; type: cell-based; details: sk-hep1, 48 h
[4] = molecular target: T1, Peptidyl-prolyl cis-trans isomerase A; test: Binding affinity to Cyclophilin A
Target sequence in this assay (P62937 whole entry): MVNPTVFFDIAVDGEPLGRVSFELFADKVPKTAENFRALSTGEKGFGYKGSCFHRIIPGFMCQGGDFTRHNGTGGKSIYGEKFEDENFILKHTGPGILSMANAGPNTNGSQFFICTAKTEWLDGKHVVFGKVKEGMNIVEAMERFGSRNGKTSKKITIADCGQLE

## N[C@@H](Cc1c[nH]c2ccccc12)C(=O)NCC(=O)N1CCC[C@H]1C(=O)O (H-Trp-Gly-Pro-OH)
[1]
  inhibition at 1000 µM: 75.5%
[2]
  inhibition: Dose-dependent effect
[2]; read-out: IC50
  IC50: 33.1 nM
[3]
  Activity: Non-toxic
[4]; read-out: Kd
  Kd: 3410 nM

## N[C@@H](Cc1ccc(O)cc1)C(=O)NCC(=O)N1CCC[C@H]1C(=O)O (H-Tyr-Gly-Pro-OH)
[2]
  IC50: Not Active
[4]
  Kd: Not Active

## C[C@H](NC(=O)[C@@H](N)Cc1c[nH]c2ccccc12)C(=O)NCC(=O)N1CCC[C@H]1C(=O)O (H-WAGP-OH)
[2]
  IC50: Not Active
[4]
  Kd: Not Active
